Data on 1 molecule can be found in ChEMBL document CHEMBL1141367, “Substituted 2-[(4-aminomethyl)phenoxy]-2-methylpropionic acid PPARalpha agonists. 1. Discovery of a novel series of potent HDLc raising agents” (J Med Chem, 2007).

Data set [1] can be described thus: Volume of distribution in Beagle dog at 2 mg/kg, iv. The data set is classed as ADME, organism-based, Canis lupus familiaris. More on the design: dose 2 mg/kg, route intravenous. The note with it: in vivo, read-out: Vdss.
The nature of data set [2]: Plasma clearance in Beagle dog at 2 mg/kg, iv. In kind it is ADME, organism-based, Canis lupus familiaris. More on the design: dose 2 mg/kg, route intravenous.
Data set [3] is described as follows: Half life in Beagle dog plasma at 2 mg/kg, iv. More on the design: dose 2 mg/kg, route intravenous. In kind it is ADME, organism-based, Canis lupus familiaris.
Data set [4] deals with Mus musculus. As to the kind of experiment: Decrease in VLDL cholesterol in human Apo-A-I transgenic C57BL/6 mouse at 1 mg/kg, po. More on the design: scale not given: the % may be the effect or the level left. In kind it is functional.
Data set [5] relates to Mus musculus. As to the kind of experiment: Decrease in VLDL cholesterol in human Apo-A-I transgenic C57BL/6 mouse at 0.5 mg/kg, po. In kind it is functional. Further details: scale not given: the % may be the effect or the level left.
In data set [6] the target is T1, Peroxisome proliferator-activated receptor gamma (Homo sapiens, UniProt P37231).
T1 sequence (P37231 whole entry): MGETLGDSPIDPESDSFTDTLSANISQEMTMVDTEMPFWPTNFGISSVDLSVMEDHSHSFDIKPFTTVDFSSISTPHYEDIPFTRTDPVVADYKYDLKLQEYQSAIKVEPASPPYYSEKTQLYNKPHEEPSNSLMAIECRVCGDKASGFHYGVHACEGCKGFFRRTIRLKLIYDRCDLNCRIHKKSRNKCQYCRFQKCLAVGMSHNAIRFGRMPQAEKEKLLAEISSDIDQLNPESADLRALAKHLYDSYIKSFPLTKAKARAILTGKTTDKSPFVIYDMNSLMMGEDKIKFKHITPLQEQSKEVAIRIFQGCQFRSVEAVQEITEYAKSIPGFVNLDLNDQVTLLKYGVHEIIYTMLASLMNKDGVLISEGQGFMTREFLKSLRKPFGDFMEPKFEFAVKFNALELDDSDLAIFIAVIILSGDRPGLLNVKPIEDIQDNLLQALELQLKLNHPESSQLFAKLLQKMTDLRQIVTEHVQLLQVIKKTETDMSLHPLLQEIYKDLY
In kind it is functional, cell-based, CV-1.
Description: Agonist potency at PPARgamma in CV1 cells by cell based transient transfection assay

The subject of data set [7] is Mus musculus. As to the kind of experiment: Decrease in VLDL cholesterol in human Apo-A-I transgenic C57BL/6 mouse at 5 mg/kg, po. The data set is classed as functional. More on the design: scale not given: the % may be the effect or the level left.
In data set [8] the test system is Mus musculus. The experiment in a line: Increase in HDL cholesterol level in human Apo-A-I transgenic C57BL/6 mouse at 0.5 mg/kg, po. The data set is classed as functional.
Data set [9] has as its target T2, Peroxisome proliferator-activated receptor gamma (Mus musculus, UniProt P37238).
T2 sequence (P37238 whole entry): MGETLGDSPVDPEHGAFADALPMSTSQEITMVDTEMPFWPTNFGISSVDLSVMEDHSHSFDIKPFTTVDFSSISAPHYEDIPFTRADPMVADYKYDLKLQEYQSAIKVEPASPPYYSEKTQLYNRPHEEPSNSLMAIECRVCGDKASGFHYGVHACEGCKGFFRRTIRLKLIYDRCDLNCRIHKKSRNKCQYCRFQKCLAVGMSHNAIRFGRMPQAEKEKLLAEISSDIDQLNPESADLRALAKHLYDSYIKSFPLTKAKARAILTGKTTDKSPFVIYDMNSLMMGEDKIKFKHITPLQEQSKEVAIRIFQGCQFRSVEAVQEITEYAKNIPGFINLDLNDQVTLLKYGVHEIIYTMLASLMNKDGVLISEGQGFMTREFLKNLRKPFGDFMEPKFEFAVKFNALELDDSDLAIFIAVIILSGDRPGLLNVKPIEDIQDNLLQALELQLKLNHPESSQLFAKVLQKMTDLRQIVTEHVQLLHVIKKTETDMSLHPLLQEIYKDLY
Description: Agonist potency at mouse PPARgamma

Structures are written as SMILES.

As to `Cc1nc(-c2ccc(C(F)(F)F)cc2)sc1C(=O)NCc1ccc(OC(C)(C)C(=O)O)cc1` [GW590735], in data set [1], the Vd is 2.8 L/kg. Besides, the clearance (as a rule, the volume of plasma or blood freed of the substance per unit of time) in data set [2] was 13 mL/min/kg. In addition, the half-life – broadly, how long it takes for the measured level to halve – in data set [3] was 2.6 h. Also, the Activity in the data set on Mus musculus [4] is listed as 63%; with Mus musculus [5] it was 48%; in the data set with Mus musculus [7], 86%; with Mus musculus [8], 43%. The concentration for a half-maximal effect (EC50) in [6] and in [9] was greater than 10 µM throughout.
